These results are taken from patent US9169260B2 (MERCK SHARP & DOHME CORP., priority 2011, dated 2015).

Bounds are passed on as bounds.

The target of one assay is GST tagged IRAK-4 (Homo sapiens (Human), UniProt Q9NWZ3). Description: IRAK-4 Kinase Assay (IMAP fluorescence polarization). In kind it is biochemical. The conditions noted are these: 100 μM ATP, 30 minutes at 25° C. An outline of the steps: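 Activity was read by IMAP fluorescence polarization, where phosphopeptide binding to M(III) nanoparticles raises FP. The 30-minute, 25° C reaction used 100 μM ATP, 100 nM RP7030 substrate and 0.5 nM GST-IRAK-4 in pH 7.2 Tris buffer with MgCl2, DTT and Tween 20.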
Sequence of GST tagged IRAK-4 (Q9NWZ3 whole entry): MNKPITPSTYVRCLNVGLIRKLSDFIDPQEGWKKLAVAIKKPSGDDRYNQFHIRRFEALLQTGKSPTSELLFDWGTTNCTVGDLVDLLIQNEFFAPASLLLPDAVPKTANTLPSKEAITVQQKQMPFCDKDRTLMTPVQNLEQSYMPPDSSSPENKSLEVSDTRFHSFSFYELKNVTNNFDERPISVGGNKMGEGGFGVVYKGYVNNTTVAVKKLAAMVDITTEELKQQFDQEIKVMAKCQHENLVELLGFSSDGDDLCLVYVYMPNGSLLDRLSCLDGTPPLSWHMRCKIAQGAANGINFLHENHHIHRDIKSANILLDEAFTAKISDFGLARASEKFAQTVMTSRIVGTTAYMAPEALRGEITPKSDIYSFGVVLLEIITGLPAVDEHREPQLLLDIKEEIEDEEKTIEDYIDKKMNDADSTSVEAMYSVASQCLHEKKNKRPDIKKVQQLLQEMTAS
Molecule `Cc1ccc(-n2nc(C3CCN(C4CCCCC4)CC3)cc2NC(=O)c2cnn3cccnc23)cc1` [Example 204, N-[3-(1-cyclohexylpiperidin-4-yl)-1-(4-methylphenyl)-1H-pyrazol-5-yl]pyrazolo[1,5-a]pyrimidine-3-carboxamide] gave an IC50 below 0.1 µM.

Take `Cc1ccc(-n2nc(C3CCN(C4CC(N(C)C)C4)CC3)cc2NC(=O)c2cnn3cccnc23)nc1` (stereo not drawn) [Example 269, N-[3-{1-[3-(dimethylamino)cyclobutyl]piperidin-4-yl}-1-(5-methylpyridin-2-yl)-1H-pyrazol-5-yl]pyrazolo[1,5-a]pyrimidine-3-carboxamide]: the IC50 is below 0.1 µM.

As for `CC(C)(N)c1ccc(-n2nc(C3CCN(S(C)(=O)=O)CC3)cc2NC(=O)c2cnn3cccnc23)nc1` [Example 159, N-(1-(5-(2-aminopropan-2-yl)pyridin-2-yl)-3-(1-(methylsulfonyl)piperidin-4-yl)-1H-pyrazol-5-yl)pyrazolo[1,5-a]pyrimidine-3-carboxamide], the IC50 was below 0.1 µM.

For the molecule `[2H]C([2H])([2H])c1ccc(-n2nc(N3CCN(C)CC3)cc2NC(=O)c2cnn3cccnc23)nc1` [Example 198, N-(3-(4-methylpiperazin-1-yl)-1-(5-trideuteromethylpyridin-2-yl)-1H-pyrazol-5-yl)pyrazolo[1,5-a]pyrimidine-3-carboxamide], the IC50 is below 0.1 µM.

The molecule `Cc1ccc(-n2nc(-c3ccc(S(=O)(=O)N4CCOCC4)cc3)cc2NC(=O)c2cnn3cccnc23)nc1` [Example 177, N-(1-(5-methylpyridin-2-yl)-3-(4-(morpholinosulfonyl)phenyl)-1H-pyrazol-5-yl)pyrazolo[1,5-a]pyrimidine-3-carboxamide] gave a concentration for half-maximal inhibition (IC50) below 0.1 µM.

The molecule `CNC(=O)c1ccc(-c2cc(NC(=O)c3cnn4cccnc34)n(-c3ccc(C)cc3)n2)cc1` [Example 348, N-{3-[4-(methylcarbamoyl)phenyl]-1-(4-methylphenyl)-1H-pyrazol-5-yl}pyrazolo[1,5-a]pyrimidine-3-carboxamide] returned a concentration for half-maximal inhibition (IC50) below 0.1 µM.

Regarding `COc1ccc(-n2nc(C3CCN(S(=O)(=O)C4CC4)CC3)cc2NC(=O)c2cnn3cccnc23)cc1` [Example 24, N-(3-(1-(cyclopropylsulfonyl)piperidin-4-yl)-1-(4-methoxyphenyl)-1H-pyrazol-5-yl)pyrazolo[1,5-a]pyrimidine-3-carboxamide], the 50% inhibitory concentration (IC50) was below 0.1 µM.

In turn, `Cc1ccc(-n2nc(C3CCN(C4CCC(C(F)(F)F)CC4)CC3)cc2NC(=O)c2cnn3cccnc23)nc1` (stereo not drawn) [Example 271, N-[1-(5-methylpyridin-2-yl)-3-{1-[4-(trifluoromethyl)cyclohexyl]piperidin-4-yl}-1H-pyrazol-5-yl]pyrazolo[1,5-a]pyrimidine-3-carboxamide] had a concentration for half-maximal inhibition (IC50) below 0.1 µM.

With `Cc1ccc(-n2nc(C3CCN(C4CCc5ccncc5C4)CC3)cc2NC(=O)c2cnn3cccnc23)nc1` (stereo not drawn) [Example 268, N-{1-(5-methylpyridin-2-yl)-3-[1-(5,6,7,8-tetrahydroisoquinolin-7-yl)piperidin-4-yl]-1H-pyrazol-5-yl}pyrazolo[1,5-a]pyrimidine-3-carboxamide], the IC50 was below 0.1 µM.

Molecule `Cc1ccc(-n2nc(C3CCN(S(C)(=O)=O)CC3)cc2NC(=O)c2cnn3cc(C(N)=O)cnc23)cc1` [Example 120, N3-(3-(1-(methylsulfonyl)piperidin-4-yl)-1-(p-tolyl)-1H-pyrazol-5-yl)pyrazolo[1,5-a]pyrimidine-3,6-dicarboxamide] showed an IC50 below 0.1 µM.

As to `CCN1CCC(N2CCC(c3cc(NC(=O)c4cnn5cccnc45)n(-c4ccc(C)cn4)n3)CC2)CC1` [Example 279, N-[3-(1′-ethyl-1,4′-bipiperidin-4-yl)-1-(5-methylpyridin-2-yl)-1H-pyrazol-5-yl]pyrazolo[1,5-a]pyrimidine-3-carboxamide], the half-inhibitory concentration (IC50) is below 0.1 µM.

Molecule `Cc1ccc(-n2nc(-c3cccnc3)cc2NC(=O)c2cnn3cccnc23)cc1` [Example 123, N-(3-(pyridin-3-yl)-1-(p-tolyl)-1H-pyrazol-5-yl)pyrazolo[1,5-a]pyrimidine-3-carboxamide] registered an IC50 below 0.1 µM.

On to `O=C(Nc1cc(C2CCN(C3CCC3)CC2)nn1-c1ccc(F)cc1F)c1cnn2cccnc12` [Example 49, N-(3-(1-cyclobutylpiperidin-4-yl)-1-(2,4-difluorophenyl)-1H-pyrazol-5-yl)pyrazolo[1,5-a]pyrimidine-3-carboxamide], for which the half-maximal inhibitory concentration (IC50) is below 0.1 µM.

For `CS(=O)(=O)N1CCC(c2cc(NC(=O)c3cnn4cccnc34)n(-c3ccc(C4CC4)cc3F)n2)CC1` [Example 73, N-(1-(4-cyclopropyl-2-fluorophenyl)-3-(1-(methylsulfonyl)piperidin-4-yl)-1H-pyrazol-5-yl)pyrazolo[1,5-a]pyrimidine-3-carboxamide], the IC50 was below 0.1 µM.

In the case of `O=C(Nc1cc(C2CCNCC2)nn1-c1ccc(C2CC2)cc1)c1cnn2cccnc12` [Example 52, N-(1-(4-cyclopropylphenyl)-3-(piperidin-4-yl)-1H-pyrazol-5-yl)pyrazolo[1,5-a]pyrimidine-3-carboxamide], the concentration for half-maximal inhibition (IC50) is below 0.1 µM.

In the case of `Cc1ccc(-n2nc(N3CCN(C)CC3)cc2NC(=O)c2cnn3cccnc23)nc1` [Example 197, N-(3-(4-methylpiperazin-1-yl)-1-(5-methylpyridin-2-yl)-1H-pyrazol-5-yl)pyrazolo[1,5-a]pyrimidine-3-carboxamide], the IC50 was below 0.1 µM.

Still in this assay, the particulars now being: 100 μM ATP, 30 minutes at 25° C.; μM.
`CC(=O)c1ccc(-n2nc(C3CCN(S(C)(=O)=O)CC3)cc2NC(=O)c2cnn3cccnc23)cc1` [Example 90, N-(1-(4-acetylphenyl)-3-(1-(methylsulfonyl)piperidin-4-yl)-1H-pyrazol-5-yl)pyrazolo[1,5-a]pyrimidine-3-carboxamide]: the IC50 was below 1 µM.

`Cc1ccc(-n2nc(C3CCN(S(C)(=O)=O)CC3)cc2NC(=O)c2cnn3cccnc23)nc1C` [Example 174, N-(1-(5,6-dimethylpyridin-2-yl)-3-(1-(methylsulfonyl)piperidin-4-yl)-1H-pyrazol-5-yl)pyrazolo[1,5-a]pyrimidine-3-carboxamide]: the half-maximal inhibitory concentration (IC50) is below 1 µM.

The molecule `Cc1ccc(-n2nc(C3CCN(C4CN(C(=O)NC(C)C)C4)CC3)cc2NC(=O)c2cnn3cccnc23)cc1` [Example 235, N-[3-(1-{1-[(1-methylethyl)carbamoyl]azetidin-3-yl}piperidin-4-yl)-1-(4-methylphenyl)-1H-pyrazol-5-yl]pyrazolo[1,5-a]pyrimidine-3-carboxamide] displayed an IC50 below 1 µM.

Regarding `O=C(Nc1cc(C2CCNCC2)nn1-c1ccc(F)cc1)c1cnn2cccnc12` [Example 10, N-(1-(4-fluorophenyl)-3-(piperidin-4-yl)-1H-pyrazol-5-yl)pyrazolo[1,5-a]pyrimidine-3-carboxamide], the half-maximal inhibitory concentration (IC50) was below 1 µM.

`Cc1ccc(-n2nc(C3CCCN(CC4CC4)C3)cc2NC(=O)c2cnn3cccnc23)cc1` (stereo not drawn) [Example 297, N-{3-[1-(cyclopropylmethyl)piperidin-3-yl]-1-(4-methylphenyl)-1H-pyrazol-5-yl}pyrazolo[1,5-a]pyrimidine-3-carboxamide]: the IC50 was below 1 µM.

Molecule `Cc1ccc(-n2nc(C3CCN(C4CN(C(=O)OCCF)C4)CC3)cc2NC(=O)c2cnn3cccnc23)cc1` [Example 241, 2-fluoroethyl 3-(4-{1-(4-methylphenyl)-5-[(pyrazolo[1,5-a]pyrimidin-3-ylcarbonyl)amino]-1H-pyrazol-3-yl}piperidin-1-yl)azetidine-1-carboxylate] returned an IC50 below 1 µM.

`Cc1cc(F)ccc1-n1nc(C2CCNCC2)cc1NC(=O)c1cnn2cccnc12` [Example 68, N-(1-(4-fluoro-2-methylphenyl)-3-(piperidin-4-yl)-1H-pyrazol-5-yl)pyrazolo[1,5-a]pyrimidine-3-carboxamide] returned a half-maximal inhibitory concentration (IC50) above 1 µM.

Turning to `CC(=O)N1CC(N2CCC(c3cc(NC(=O)c4cnn5cccnc45)n(-c4ccc(C)cc4)n3)CC2)C1` [Example 248, N-{3-[1-(1-acetylazetidin-3-yl)piperidin-4-yl]-1-(4-methylphenyl)-1H-pyrazol-5-yl}pyrazolo pyrimidine-3-carboxamide], the 50% inhibitory concentration (IC50) was below 1 µM.

For `Cc1ccc(-n2nc(C3CCNCC3)cc2NC(=O)c2cnn3cccnc23)c(Cl)c1` [Example 65, N-(1-(2-chloro-4-methylphenyl)-3-(piperidin-4-yl)-1H-pyrazol-5-yl)pyrazolo[1,5-a]pyrimidine-3-carboxamide], the IC50 was below 1 µM.

On to `Cc1ccc(-n2nc(C3CCN(S(=O)(=O)Cc4ccccc4)CC3)cc2NC(=O)c2cnn3cccnc23)cc1` [Example 387, N-{3-[1-(benzylsulfonyl)piperidin-4-yl]-1-(4-methylphenyl)-1H-pyrazol-5-yl}pyrazolo[1,5-a]pyrimidine-3-carboxamide], for which the IC50 was below 1 µM.

As for `Cc1ccc(-n2nc(-c3cnn(CCS(C)(=O)=O)c3)cc2NC(=O)c2cnn3cccnc23)cc1` [Example 333, N-{1-(4-methylphenyl)-1′-[2-(methylsulfonyl)ethyl]-1H,1′H-3,4′-bipyrazol-5-yl}pyrazolo[1,5-a]pyrimidine-3-carboxamide], the IC50 is below 1 µM.

Molecule `O=C(Nc1cc(C2CCN(S(=O)(=O)C3CC3)CC2)nn1-c1ccc(C2CC2)cn1)c1cnn2cccnc12` [Example 150, N-(1-(5-cyclopropylpyridin-2-yl)-3-(1-(cyclopropylsulfonyl)piperidin-4-yl)-1H-pyrazol-5-yl)pyrazolo[1,5-a]pyrimidine-3-carboxamide] registered an IC50 below 1 µM.

In turn, `Cc1ccc(-n2nc(C3CCCNC3)cc2NC(=O)c2cnn3cccnc23)cc1` (stereo not drawn) [Example 42, N-(3-(piperidin-3-yl)-1-(p-tolyl)-1H-pyrazol-5-yl)pyrazolo[1,5-a]pyrimidine-3-carboxamide] returned a half-maximal inhibitory concentration (IC50) below 1 µM.

“methyl((4-(5-(pyrazolo[1,5-a]pyrimidine-3-carboxamido)-1-(p-tolyl)-1H-pyrazol-3-yl)cyclohexyl)methyl)carbamate [Example 183]” gave a half-inhibitory concentration (IC50) below 1 µM.
